target: Flap endonuclease 1 (Homo sapiens, UniProt P39748); assay: Enzymatic IC50 Assays: FEN1, EXO1 or XPG enzyme was incubated with compound or vehicle (DMSO) and the FAM-labeled DNA oligomer substrate in a microtiter plate. The stop buffer contains EDTA to stop the enzymatic reaction. The plate is read for fluorescence intensity. The high control (DMSO) with high fluorescence intensity represents no inhibition of enzymatic reaction while the low control (10 μM) with low fluorescence intensity represents full inhibition of enzymatic reaction.
Sequence (P39748 whole entry): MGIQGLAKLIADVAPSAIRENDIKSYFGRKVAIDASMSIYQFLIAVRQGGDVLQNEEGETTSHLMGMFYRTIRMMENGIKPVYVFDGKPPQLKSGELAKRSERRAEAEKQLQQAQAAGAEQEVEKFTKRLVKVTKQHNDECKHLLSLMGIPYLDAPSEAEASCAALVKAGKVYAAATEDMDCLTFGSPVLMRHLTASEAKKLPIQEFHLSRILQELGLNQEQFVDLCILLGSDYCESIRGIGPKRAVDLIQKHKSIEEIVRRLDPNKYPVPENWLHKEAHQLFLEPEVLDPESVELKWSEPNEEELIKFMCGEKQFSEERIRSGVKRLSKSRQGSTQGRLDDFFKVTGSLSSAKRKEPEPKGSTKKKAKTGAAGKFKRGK

IC50, < 200 nM:
O=C(O)c1c(O)c(=O)n(Cc2cnn(-c3cccc(Cl)c3)c2)c2ccsc12, COc1ccc(Cn2cc(Cn3c(=O)c(O)c(C(=O)O)c4sccc43)cn2)cc1, COc1ccc(Cn2c(=O)c(O)c(C(=O)O)c3sccc32)cn1, COc1cccc(-n2cc(Cn3c(=O)c(O)c(C(=O)O)c4sccc43)cn2)c1, Cc1c(Cn2c(=O)c(O)c(C(=O)O)c3sccc32)cnn1C, O=C(O)c1c(O)c(=O)n(Cc2cnc3ccccn23)c2ccsc12
